Laboratory results reported in ChEMBL document CHEMBL1157539, “Thousands of chemical starting points for antimalarial lead identification” (Nature, 2010).

These compounds were tested on Plasmodium falciparum (assay: GSK_TCMDC: Inhibition of Plasmodium falciparum 3D7 in whole erythrocytes, using parasite LDH activity as an index of growth.). Details: Plasmodium falciparum, 3D7.
Type: functional, organism-based
Compound CCNc1cc(C(=O)N[C@@H](Cc2ccccc2)[C@H](O)CNCCc2cc(OC)cc(OC)c2)cc(N2CCCCS2(=O)=O)c1 has an XC50 of 1140 nM.
Cc1cc(=NN=Cc2ccccc2)c2cc(F)ccc2[nH]1 showed an XC50 of 579 nM.
With CCCCCN(C(=O)Nc1cc(C(F)(F)F)cc(C(F)(F)F)c1)C(C)c1nc2ccccc2c(=O)n1CC (stereo not drawn) the XC50 was 787 nM.
COc1cc(NC(=O)N2CCOC(CCN3CCC4(CCc5ccccc54)CC3)(c3ccc(Cl)c(Cl)c3)C2)cc(OC)c1 (stereo not drawn) gave an XC50 of 819 nM.
Cc1ccc(-n2nc(C)c3c2NC(=O)CSC3c2ccsc2)cc1 (stereo not drawn) showed an XC50 of 1010 nM.
C[C@@H](COc1ccc(-c2ccccc2)cc1)CON1C(N)=NC(N)=NC1(C)C was tested, and the XC50 was 3.2 nM.
In the case of O=C(/C=C/c1ccc(Cl)c(Cl)c1)NCCCCCCN1CCN(C(=O)Nc2ccc(F)c(Cl)c2)CC1, the XC50 is reported as 938 nM.
Work on COc1ccc(Cl)cc1S(=O)(=O)Nc1cccc(CCN2CCC(N3CCCCC3)CC2)c1 yielded an XC50 of 704 nM.
In the case of COC(=O)c1cc2cccc(NC[C@@H](C)NC[C@H](O)c3cccc(Cl)c3)c2[nH]1, the XC50 is reported as 631 nM.
CC1(C)N=C(N)N=C(N)N1OCc1cccc(C#N)c1 showed an XC50 of 7.93 nM.
With COC(=O)c1c(C#N)c(OC)cc(O)c1CSC[C@H](Nc1nc(-c2ccc([N+](=O)[O-])cc2)cs1)C(=O)NCCN1CCCCC1 the XC50 was 1060 nM.
For Oc1ccc(CN2CCC(NCc3cccc4ccccc34)CC2)cc1, the XC50 was 1200 nM.
Work on Cc1cc(OCC2CCN(c3ncc(C(=O)NC4CC4)cc3Cl)CC2)ccc1F yielded an XC50 of 789 nM.
Cn1nc(-c2ccc(NC(=O)Nc3cc(C(F)(F)F)ccc3F)cc2)c2cnc(NCCc3c[nH]cn3)nc21 showed an XC50 of 813 nM.
For Cc1ccc2[nH]c3c(c2c1)CC(C(=O)NCCC(C)C)NC31CCN(Cc2ccccc2)CC1 (stereo not drawn), the XC50 was 932 nM.
Fc1ccc(-c2nc(NCc3cccc(C(F)(F)F)c3)nn2-c2cccc(C(F)(F)F)c2)cc1C(F)(F)F gave an XC50 of 1050 nM.
C=C[C@H]1CN(CCCCCCC)CC[C@H]1CCNc1ccnc2ccc(OC)cc12 was tested, and the XC50 was 61.8 nM.
Compound COc1cc2c(cc1OCCN1CCC(N3CCCCC3)CC1)N(C(=O)/C=C/c1ccccc1Cl)CC2 has an XC50 of 280 nM.
Work on Nc1nc(N)c2c(Cc3ccccc3)cccc2n1 yielded an XC50 of 828 nM.
Work on CCN(CC)CCN(Cc1ccc(-c2ccc(C(F)(F)F)cc2)cc1)C(=O)Cn1c(CCc2cccc(F)c2F)nc(=O)c2cc(C)ccc21 yielded an XC50 of 936 nM.
CC(C)(C)c1cc(NC(=O)c2ccc(Cl)c([N+](=O)[O-])c2)cc(C(C)(C)C)c1 showed an XC50 of 1030 nM.
CN1CCN(Cc2cccc(-c3ccc4c(Nc5cc(O)c(Cl)cc5F)ccnc4c3)c2)CC1 gave an XC50 of 770 nM.
O=C(CCOc1ccccc1)NCC1CCCO1 (stereo not drawn) was tested, and the XC50 was 1000 nM.
CN(Cc1cnc2nc(N)nc(N)c2n1)c1ccc(C(=O)N[C@H](CCC(=O)OC(C)(C)C)C(=O)N[C@@H](CCC(=O)OC(C)(C)C)C(=O)OC(C)(C)C)cc1 showed an XC50 of 1020 nM.
In the case of COc1ccc2nccc([C@@H](O)CN3CCC(NCc4cn5cc(F)ccc5n4)CC3)c2c1, the XC50 is reported as 784 nM.
Compound CC1CCCN(S(=O)(=O)c2cc(Br)cc3c2N(C(=O)C2CC2)CC3)C1 (stereo not drawn) has an XC50 of 724 nM.
Work on Cc1ccc(-n2cc(CNCC3CCN(CCO)CC3)c(-c3ccc(F)cc3)n2)cc1 yielded an XC50 of 2000 nM.
O=C(/C=C/c1ccc(Cl)c(Cl)c1)NCCCCCN1CCCC(CNC(=O)c2sc3ccccc3c2Cl)C1 (stereo not drawn) gave an XC50 of 870 nM.
Work on N#Cc1ccc(C=CC(=O)NC2CCC(CCN3CCc4ccc(-c5cnccn5)cc4CC3)CC2)cc1 (stereo not drawn) yielded an XC50 of 613 nM.
O=C(NCCNc1ccnc(Nc2ccc(F)cc2)n1)Nc1ccccc1F showed an XC50 of 762 nM.
Cc1cc(N(C)C)nc(Nc2ccc(NC(=O)c3ccccc3F)cc2)n1 showed an XC50 of 1160 nM.
For COc1cc(C)nc2ccc(NC(=O)Nc3ccccc3[N+](=O)[O-])cc12, the XC50 was 837 nM.
For CC1CCN(CC[C@H]2CCCN2S(=O)(=O)c2cccc(NC(=O)c3ccc(-c4ccc(Cl)cc4)o3)c2)CC1, the XC50 was 693 nM.
O=C(NC1CCC(CN2CCC(c3c[nH]c4ccccc34)CC2)CC1)NC12CC3CC(CC(C3)C1)C2 (stereo not drawn) was tested, and the XC50 was 1060 nM.
O=C(Nc1ccc(C(=O)N(Cc2ccc3c(c2)OCO3)C2CCCC2)cc1)c1cccs1 showed an XC50 of 650 nM.
O=C(NCCCCCN1CCCN(C(=O)Nc2ccc(F)c(C(F)(F)F)c2)CC1)C1CC1c1ccc(Cl)c(Cl)c1 (stereo not drawn) was tested, and the XC50 was 1030 nM.
Work on Clc1ncnc2ncn(Cc3cccc(Br)c3)c12 yielded an XC50 of 1060 nM.
Work on CCOC(=O)c1c(SCc2cccc(F)c2F)[nH]c2ccccc2c1=O yielded an XC50 of 644 nM.
O=[N+]([O-])c1cc(C(c2ccc(O)c([N+](=O)[O-])c2)C(Cl)(Cl)Cl)ccc1O gave an XC50 of 734 nM.
With CCC(C)CN1CCCN(c2ccc(NC(=O)c3cccs3)cc2)CC1 (stereo not drawn) the XC50 was 802 nM.
In the case of c1ccc2[nH]c(-c3ccc(-c4ccc(CN5CCCCC5)cc4)s3)nc2c1, the XC50 is reported as 742 nM.
O=C(NCCCN1CCCCC1)c1cccc(Nc2nccc(Nc3ccc(Oc4ccccc4)cc3)n2)c1 gave an XC50 of 821 nM.
With Cc1nc(NC(=N)N)nc2ccc(C(C)(C)C)cc12 the XC50 was 747 nM.
With Cc1[nH]c2cc(Cl)ccc2c1C1=CCN(CCCCC2(C)C(=O)Nc3ccccc32)CC1 (stereo not drawn) the XC50 was 333 nM.
COc1ccc(CN(C)CCCSc2ccc(NC(=O)c3cccc4c(=O)cc(-c5ccccc5)[nH]c34)cc2)cc1OC showed an XC50 of 920 nM.
In the case of Cc1cc(N(C)C)nc(Nc2ccc(NC(=O)c3ccccc3Cl)cc2)n1, the XC50 is reported as 1020 nM.
COc1cccc(-c2cc(C(=O)Nc3ccc4[nH]c(-c5ccccc5)nc4c3)[nH]n2)c1 was tested, and the XC50 was 836 nM.
In the case of Cc1c(-c2cccc(NC(=O)C(C)(C)Oc3ccc(Cl)cc3)c2)nc2ncccn12, the XC50 is reported as 170 nM.
CN(CCCN(C)c1cc(NC(=O)c2ccc(F)cc2)ccn1)Cc1cccc(O)c1 was tested, and the XC50 was 1210 nM.
Compound CC1CCCCC1N(C)C1CCN(CCCNC(=O)C=Cc2ccc(Cl)cc2Cl)CC1 (stereo not drawn) has an XC50 of 650 nM.
Cc1cc(-c2ccc3c(c2)CCN(CCC2CCC(NC(=O)/C=C/c4cccc(Cl)c4)CC2)CC3)on1 (stereo not drawn) was tested, and the XC50 was 589 nM.
COc1cc2nc(C)nc(Nc3cccc(Br)c3)c2cc1OC was tested, and the XC50 was 356 nM.
Compound CC(C)(C)OC(=O)N[C@@H](Cc1ccccc1)C(=O)Nc1cccc(-c2cccc(NC(=O)[C@H](Cc3ccccc3)NC(=O)OC(C)(C)C)c2)c1 has an XC50 of 609 nM.
For CC(C)N(CCOc1ccc2c(c1)N(C(=O)Nc1cc(Br)cc(C(F)(F)F)c1)CC2)C(C)C, the XC50 was 108 nM.
Compound CN1CCN(Cc2cccc(-c3ccc4c(Nc5ccc(Oc6ccccc6)cc5)ccnc4c3)c2)CC1 has an XC50 of 226 nM.
COc1cc(CN2CCC(N3CCc4cc(NC(=O)c5cc(C)on5)ccc43)C2)ccc1F (stereo not drawn) showed an XC50 of 607 nM.
In the case of c1cc(-c2ccc(CNCc3ccsc3)cc2)cc(-c2nc3ccccc3[nH]2)c1, the XC50 is reported as 156 nM.
COc1ccc(-c2ccc3c(-c4cccc(S(C)(=O)=O)c4)cnc(N)c3c2)cc1 showed an XC50 of 1330 nM.
Work on O=C(Nc1nc2cc(S(=O)(=O)NCCc3cccc(F)c3)ccc2n1CCCn1ccnc1)c1ccc(Cl)cc1 yielded an XC50 of 1270 nM.
Compound O=C(Nc1cccc(Cl)c1N1CCOCC1)C(Cl)(Cl)Cl has an XC50 of 983 nM.
CCOC(=O)c1cc(Cl)cc(Cl)c1OCCCON1C(=N)N=C(N)NC1(C)C showed an XC50 of 3.2 nM.
For O=c1c2ccc(Sc3ccccn3)cc2n(-c2ccccc2)c2cc(Sc3ccccn3)ccc12, the XC50 was 203 nM.
COc1ccc(C(=O)Nc2ccc3nc(N4CCCCC4)cc(C)c3c2)cc1OC showed an XC50 of 994 nM.
CC(=O)c1cccc2cc(C(=O)NC3CCC(CCN4CCc5ccc(C#N)cc5C4)CC3)[nH]c12 (stereo not drawn) showed an XC50 of 787 nM.
Cc1n[nH]c2cc(Nc3ccnc(Nc4cccc(CN5CCOCC5)c4)n3)ccc12 showed an XC50 of 1580 nM.
In the case of C=CCc1cc(Cc2cnc(N)nc2N)cc(CCC)c1O, the XC50 is reported as 986 nM.
Compound CN1CCCN(Cc2ccc(-c3cccc(NC(=O)c4ccc(C#N)cc4)c3)cc2)CC1 has an XC50 of 744 nM.
CCOc1ccc(C(=O)Nc2cc(Br)c3c(c2)CNCC3)cc1Cl showed an XC50 of 1040 nM.
